Results: US9645154B2, “Method for detecting cancer cell” (ARKRAY, Inc., priority 2010, dated 2017)

Assays:
[1] = tested on: human breast adenocarcinoma cells (MCF-7); experiment: Fluorescence values of cell suspension reacted with aminolevulinic acid (i-densy); type: cell-based; conditions: 1 mM, 37° C.
Excerpt: In accordance with the conventional method, human breast adenocarcinoma cells (cell line name: MCF-7; DS Pharma Biomedical Co., Ltd.) in culture was harvested with trypsin (Invitrogen). The cancer cell suspension harvested was centrifuged, and the supernatant was removed. The cells were resuspended with Dulbecco's PBS (+) (Nissui Pharmaceutical Co., Ltd.) and centrifuged, and the supernatant was removed again.
The number of the cells was counted using a hemacytometer in accordance with the conventional method, and then 2.8×10^5 cells per sample was aliquoted. […]
The fluorescence values of the cell suspension were measured using an i-densy (ARKRAY, Inc) at 15 minutes, 30 minutes, 60 minutes and 90 minutes after the start of the reaction. Conditions for fluorescence value measurement are as follows: 40° C. in the temperature regulated and light-intensity mode, Gain “3”, LED1 (390±20 nm for excitation)—PD3 (642.5±57.5 nm for detection).
In FIG. 7, the vertical axis represents fluorescence values, and the horizontal axis represents the reaction time. The solid squares represent fluorescence values obtained from the sample using Dulbecco's PBS (−) containing no Mg and Ca ions. The solid triangles represent fluorescence values obtained from the sample using Dulbecco's PBS (+) containing Mg and Ca ions. […]

Blood cells = experiment: Aminolevulinic acid (with FeCl2 and ascorbic acid at the same concentration) labeling, fluorescence microscopy image analysis (false-positive/negative rate); type: cell-based, human
Excerpt: Blood was collected from a human subject using a vacuum blood collection tube (with EDTA•2K). Blood cells were separated using HetaSep (STEMCELL Technologies) in accordance with manufacturer's instructions.
When performing the hemolyzing treatment, the collected blood cell fraction was hemolyzed using ammonium chloride (STEMCELL Technologies) at room temperature according to the manufacture's manuals.
The number of the cells was counted using a hemacytometer in accordance with the conventional method, and then 10^5 to 10^6 cells per sample (cell suspension) was aliquoted. The sample was centrifuged to remove the supernatant. Subsequently, aminolevulinic acid 5-AMINOLEVULINATE HYDROCHLORIDE (trade name, Cosmo Bio Co., Ltd., at the final concentration given in Table 7 or 8) dissolved in Dulbecco's PBS (+) and FeCl2 and ascorbic acid having the same concentration as that of aminolevulinic acid, respectively, were added thereto, and the cells were suspended well. The number of the cells was adjusted, and then the cells were added dropwise to a 384-well plate. The plate was centrifuged to spin down the cells. The image was captured with a fluorescence microscope (Nikon Corp.).
The wavelengths for the fluorescence filter set: EX (excitation wavelength): 402±7.5, DM: 430 or longer, BA (fluorescence wavelength): 625±15.
The acquired images were analyzed using an image analysis software NIS-ELEMENTS (trade name, Nikon Corp.) to evaluate the fluorescence intensity of the cell.

[2] = hemolyzed, 0.3 mM, 60 min, 37° C., threshold value 198 (Gastric cancer)
[3] = hemolyzed, 0.3 mM, 60 min, 37° C., threshold value 203 (Fibrosarcoma)
[4] = hemolyzed, 0.3 mM, 60 min, 37° C., threshold value 207 (Colon adenocarcinoma)
[5] = hemolyzed, 0.3 mM, 60 min, 37° C., threshold value 212 (Alveolar epithelial cancer)
[6] = hemolyzed, 0.3 mM, 60 min, 37° C., threshold value 265 (Prostate cancer)
[7] = hemolyzed, 0.3 mM, 60 min, 37° C., threshold value 268 (Breast adenocarcinoma)
[8] = hemolyzed, 0.1 mM, 37° C., 60 min
[9] = hemolyzed, 0.3 mM, 37° C., 60 min (concentration series)
[10] = hemolyzed, 1 mM, 37° C., 60 min
[11] = hemolyzed, 4° C., 0.3 mM, 60 min
[12] = hemolyzed, 23° C., 0.3 mM, 60 min
[13] = hemolyzed, 37° C., 0.3 mM, 60 min (temperature series)
[14] = hemolyzed, 30 min, 0.3 mM, 37° C.
[15] = hemolyzed, 60 min, 0.3 mM, 37° C. (time series)
[16] = hemolyzed, 120 min, 0.3 mM, 37° C.
[17] = without hemolyzing treatment, 0.1 mM, 37° C., 60 min
[18] = without hemolyzing treatment, 0.3 mM, 37° C., 60 min (concentration series)
[19] = without hemolyzing treatment, 1 mM, 37° C., 60 min
[20] = without hemolyzing treatment, 4° C., 0.3 mM, 60 min
[21] = without hemolyzing treatment, 23° C., 0.3 mM, 60 min
[22] = without hemolyzing treatment, 37° C., 0.3 mM, 60 min (temperature series)
[23] = without hemolyzing treatment, 30 min, 0.3 mM, 37° C.
[24] = without hemolyzing treatment, 60 min, 0.3 mM, 37° C. (time series)
[25] = without hemolyzing treatment, 120 min, 0.3 mM, 37° C.

SMILES: NCC(=O)CCC(=O)O [aminolevulinic acid, 5-amino-4-oxopentanoic acid]
- reactivity of aminolevulinic acid (fluorescence values of the cell suspension) ([1]; 15 to 90 minutes, Dulbecco's PBS (+) containing Mg and Ca ions versus PBS (−), FIG. 7): can be improved
- reactivity of aminolevulinic acid (fluorescence values of the cell suspension) ([1]; Dulbecco's PBS (+) with Mg and Ca ions plus 10 μM ENDO-PORTER, FIG. 8): further improves the reactivity
- Negative rate (Blood cells (fresh blood)) (Blood cells; [2]): 95.2%
- Positive rate (Blood cells (fresh blood)) (Blood cells; [2]): 4.8%
- Negative rate (Blood cells (fresh blood)) (Blood cells; [3]): 95.2%
- Positive rate (Blood cells (fresh blood)) (Blood cells; [3]): 4.8%
- Negative rate (Blood cells (fresh blood)) (Blood cells; [4]): 95.2%
- Positive rate (Blood cells (fresh blood)) (Blood cells; [4]): 4.8%
- Negative rate (Blood cells (fresh blood)) (Blood cells; [5]): 95.2%
- Positive rate (Blood cells (fresh blood)) (Blood cells; [5]): 4.8%
- Negative rate (Blood cells (fresh blood)) (Blood cells; [6]): 95.2%
- Positive rate (Blood cells (fresh blood)) (Blood cells; [6]): 4.8%
- Negative rate (Blood cells (fresh blood)) (Blood cells; [7]): 95.6%
- Positive rate (Blood cells (fresh blood)) (Blood cells; [7]): 4.4%
- Negative rate (Blood cells) (Blood cells; [8]): 98%
- Positive rate (Blood cells) (Blood cells; [8]): 2%
- Negative rate (Blood cells) (Blood cells; [9]): 93%
- Positive rate (Blood cells) (Blood cells; [9]): 7%
- Negative rate (Blood cells) (Blood cells; [10]): 87%
- Positive rate (Blood cells) (Blood cells; [10]): 13%
- Negative rate (Blood cells) (Blood cells; [11]): 98%
- Positive rate (Blood cells) (Blood cells; [11]): 2%
- Negative rate (Blood cells) (Blood cells; [12]): 98%
- Positive rate (Blood cells) (Blood cells; [12]): 2%
- Negative rate (Blood cells) (Blood cells; [13]): 88%
- Positive rate (Blood cells) (Blood cells; [13]): 12%
- Negative rate (Blood cells) (Blood cells; [14]): 98%
- Positive rate (Blood cells) (Blood cells; [14]): 2%
- Negative rate (Blood cells) (Blood cells; [15]): 100%
- Positive rate (Blood cells) (Blood cells; [15]): 0%
- Negative rate (Blood cells) (Blood cells; [16]): 94%
- Positive rate (Blood cells) (Blood cells; [16]): 6%
- Negative rate (Blood cells) (Blood cells; [17]): 98%
- Positive rate (Blood cells) (Blood cells; [17]): 2%
- Negative rate (Blood cells) (Blood cells; [18]): 99%
- Positive rate (Blood cells) (Blood cells; [18]): 1%
- Negative rate (Blood cells) (Blood cells; [19]): 93%
- Positive rate (Blood cells) (Blood cells; [19]): 7%
- Negative rate (Blood cells) (Blood cells; [20]): 98%
- Positive rate (Blood cells) (Blood cells; [20]): 2%
- Negative rate (Blood cells) (Blood cells; [21]): 100%
- Positive rate (Blood cells) (Blood cells; [21]): 0%
- Negative rate (Blood cells) (Blood cells; [22]): 100%
- Positive rate (Blood cells) (Blood cells; [22]): 0%
- Negative rate (Blood cells) (Blood cells; [23]): 98%
- Positive rate (Blood cells) (Blood cells; [23]): 2%
- Negative rate (Blood cells) (Blood cells; [24]): 99%
- Positive rate (Blood cells) (Blood cells; [24]): 1%
- Negative rate (Blood cells) (Blood cells; [25]): 86%
- Positive rate (Blood cells) (Blood cells; [25]): 14%
